Test results reported in PubChem BioAssay (NCI).
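Where inhibition never reached the appropriate level, the endpoint shown equals the highest concentration tested. Otherwise, values were interpolated linearly from a five-concentration, 48-hour dose response in 96-well plates. TGI marks complete inhibition of growth.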

Experiments:
Assay in all cases: inhibition of tumour cell growth, NCI panel, 48 h
NCI-H460 lung = test system: NCI-H460 lung
UO-31 renal = test system: UO-31 renal
RPMI-8226 leukemia = test system: RPMI-8226 leukemia
ACHN renal = test system: ACHN renal
U251 CNS = test system: U251 CNS
A498 renal = test system: A498 renal
UACC-62 melanoma = test system: UACC-62 melanoma
CCRF-CEM leukemia = test system: CCRF-CEM leukemia
K-562 leukemia = test system: K-562 leukemia
SW-620 colon = test system: SW-620 colon
DMS 114 small cell lung = test system: DMS 114 small cell lung
COLO 205 colon = test system: COLO 205 colon
KM20L2 colon = test system: KM20L2 colon
KM12 colon = test system: KM12 colon
SF-268 CNS = test system: SF-268 CNS
M19-MEL melanoma = test system: M19-MEL melanoma
UACC-257 melanoma = test system: UACC-257 melanoma
SNB-19 CNS = test system: SNB-19 CNS
MOLT-4 leukemia = test system: MOLT-4 leukemia
SNB-78 CNS = test system: SNB-78 CNS
SK-MEL-5 melanoma = test system: SK-MEL-5 melanoma
HCT-15 colon = test system: HCT-15 colon
NCI-H226 lung = test system: NCI-H226 lung
CAKI-1 renal = test system: CAKI-1 renal
SR leukemia = test system: SR leukemia
MALME-3M melanoma = test system: MALME-3M melanoma
A549 NSCLC = test system: A549 NSCLC
SK-MEL-28 melanoma = test system: SK-MEL-28 melanoma
HT29 colon = test system: HT29 colon
HOP-92 NSCLC = test system: HOP-92 NSCLC
HOP-18 NSCLC = test system: HOP-18 NSCLC
OVCAR-3 ovarian = test system: OVCAR-3 ovarian
TK-10 renal = test system: TK-10 renal
HCT-116 colon = test system: HCT-116 colon
LOX IMVI melanoma = test system: LOX IMVI melanoma
LXFL 529 NSCLC = test system: LXFL 529 NSCLC
HL-60(TB) leukemia = test system: HL-60(TB) leukemia
SN12C renal = test system: SN12C renal
HOP-62 NSCLC = test system: HOP-62 NSCLC
IGROV1 ovarian = test system: IGROV1 ovarian
M14 melanoma = test system: M14 melanoma
786-0 renal = test system: 786-0 renal
OVCAR-5 ovarian = test system: OVCAR-5 ovarian
DLD-1 colon = test system: DLD-1 colon
OVCAR-8 ovarian = test system: OVCAR-8 ovarian
SF-539 CNS = test system: SF-539 CNS
NCI-H23 lung = test system: NCI-H23 lung
SK-MEL-2 melanoma = test system: SK-MEL-2 melanoma
NCI-H522 lung = test system: NCI-H522 lung
OVCAR-4 ovarian = test system: OVCAR-4 ovarian
SF-295 CNS = test system: SF-295 CNS
SK-OV-3 ovarian = test system: SK-OV-3 ovarian
PC-3 prostate = test system: PC-3 prostate
XF 498 CNS = test system: XF 498 CNS
MDA-N = test system: MDA-N
RXF 393 renal = test system: RXF 393 renal
BT-549 breast = test system: BT-549 breast
MCF7 breast = test system: MCF7 breast
NCI/ADR-RES ovarian = test system: NCI/ADR-RES ovarian
DMS 273 small cell lung = test system: DMS 273 small cell lung
MDA-MB-231 breast = test system: MDA-MB-231 breast
MDA-MB-435 = test system: MDA-MB-435
HS 578T breast = test system: HS 578T breast
EKVX NSCLC = test system: EKVX NSCLC
SNB-75 CNS = test system: SNB-75 CNS
DU-145 prostate = test system: DU-145 prostate
HCC-2998 colon = test system: HCC-2998 colon
T-47D breast = test system: T-47D breast

**Q.** What does the source list for `CCN(CC)CCNc1ccc2ncn3c4ccccc4c(=O)c1c23`?
**A.** TGI (NCI-H460 lung): 8.98 µM; TGI (UO-31 renal): 12.2 µM; TGI (RPMI-8226 leukemia): > 100 µM; TGI (ACHN renal): 12.2 µM; TGI (U251 CNS): 17.5 µM; TGI (A498 renal): 20.6 µM; TGI (UACC-62 melanoma): 14.6 µM; TGI (CCRF-CEM leukemia): > 100 µM; TGI (K-562 leukemia): > 100 µM; TGI (SW-620 colon): 16 µM; TGI (DMS 114 small cell lung): 17.5 µM; TGI (COLO 205 colon): 9.78 µM; TGI (KM20L2 colon): 17.9 µM; TGI (KM12 colon): 17.6 µM; TGI (SF-268 CNS): 18.7 µM; TGI (M19-MEL melanoma): 13.9 µM; TGI (UACC-257 melanoma): 15.1 µM; TGI (SNB-19 CNS): 32 µM; TGI (MOLT-4 leukemia): > 100 µM; TGI (SNB-78 CNS): 18.9 µM; TGI (SK-MEL-5 melanoma): 13.3 µM; TGI (HCT-15 colon): 16 µM; TGI (NCI-H226 lung): 7.67 µM; TGI (CAKI-1 renal): 6.73 µM; TGI (SR leukemia): > 100 µM; TGI (MALME-3M melanoma): 15.1 µM; TGI (A549 NSCLC): 10.2 µM; TGI (SK-MEL-28 melanoma): 16.4 µM; TGI (HT29 colon): 11 µM; TGI (HOP-92 NSCLC): 10.4 µM; TGI (HOP-18 NSCLC): 37.4 µM; TGI (OVCAR-3 ovarian): 49.7 µM; TGI (TK-10 renal): 79.9 µM; TGI (HCT-116 colon): 12.8 µM; TGI (LOX IMVI melanoma): 3.73 µM; TGI (LXFL 529 NSCLC): 18.3 µM; TGI (HL-60(TB) leukemia): > 100 µM; TGI (SN12C renal): > 100 µM; TGI (HOP-62 NSCLC): 21.6 µM; TGI (IGROV1 ovarian): 15.7 µM; TGI (M14 melanoma): 16.8 µM; TGI (786-0 renal): 15.4 µM; TGI (OVCAR-5 ovarian): 34.1 µM; TGI (DLD-1 colon): 18.9 µM; TGI (OVCAR-8 ovarian): 13.3 µM; TGI (SF-539 CNS): 18 µM; TGI (NCI-H23 lung): 19.8 µM; TGI (SK-MEL-2 melanoma): 16.3 µM; TGI (NCI-H522 lung): 12.3 µM; TGI (OVCAR-4 ovarian): 9.53 µM; TGI (SF-295 CNS): 14.5 µM; TGI (SK-OV-3 ovarian): 14.3 µM

**Q.** Which results are given for `COc1ccc2nccc(NCCCN3CCN(CCCNc4ccnc5ccc(OC)cc45)CC3)c2c1`?
**A.** TGI (NCI-H460 lung): 1.77 µM; TGI (PC-3 prostate): 4.15 µM; TGI (UO-31 renal): 25.8 µM; TGI (XF 498 CNS): 1.56 µM; TGI (RPMI-8226 leukemia): 1.46 µM; TGI (MDA-N): 1.52 µM; TGI (ACHN renal): 11.4 µM; TGI (U251 CNS): 1.51 µM; TGI (RXF 393 renal): 3.69 µM; TGI (A498 renal): 13.5 µM; TGI (BT-549 breast): 11.6 µM; TGI (UACC-62 melanoma): 2.08 µM; TGI (CCRF-CEM leukemia): > 100 µM; TGI (K-562 leukemia): 0.526 µM; TGI (SW-620 colon): 1.04 µM; TGI (DMS 114 small cell lung): 1.91 µM; TGI (COLO 205 colon): 1.24 µM; TGI (KM20L2 colon): 3.37 µM; TGI (KM12 colon): 1.79 µM; TGI (SF-268 CNS): 1.79 µM; TGI (M19-MEL melanoma): 1.97 µM; TGI (UACC-257 melanoma): 2.62 µM; TGI (SNB-19 CNS): 5.98 µM; TGI (MOLT-4 leukemia): 1.16 µM; TGI (SNB-78 CNS): 3.47 µM; TGI (SK-MEL-5 melanoma): 2.85 µM; TGI (HCT-15 colon): 32.4 µM; TGI (MCF7 breast): 1.37 µM; TGI (NCI/ADR-RES ovarian): > 100 µM; TGI (NCI-H226 lung): 1.37 µM; TGI (DMS 273 small cell lung): 1.67 µM; TGI (MDA-MB-231 breast): 4 µM; TGI (CAKI-1 renal): 15 µM; TGI (SR leukemia): > 26.2 µM; TGI (MALME-3M melanoma): 1.88 µM; TGI (A549 NSCLC): 6.55 µM; TGI (SK-MEL-28 melanoma): 2.92 µM; TGI (MDA-MB-435): 1.65 µM; TGI (HT29 colon): 1.67 µM; TGI (HS 578T breast): 3.27 µM; TGI (HOP-92 NSCLC): 2.35 µM; TGI (OVCAR-3 ovarian): 7.73 µM; TGI (TK-10 renal): 22 µM; TGI (HCT-116 colon): 2.54 µM; TGI (LOX IMVI melanoma): 1.49 µM; TGI (LXFL 529 NSCLC): 1.82 µM; TGI (SN12C renal): 1.45 µM; TGI (EKVX NSCLC): 7.93 µM; TGI (HOP-62 NSCLC): 4.4 µM; TGI (SNB-75 CNS): 1.89 µM; TGI (DU-145 prostate): 4.86 µM; TGI (IGROV1 ovarian): 3.69 µM; TGI (M14 melanoma): 3.19 µM; TGI (HCC-2998 colon): 2.13 µM; TGI (786-0 renal): 8.99 µM; TGI (OVCAR-5 ovarian): 4.74 µM; TGI (DLD-1 colon): 5.12 µM; TGI (OVCAR-8 ovarian): 2.85 µM; TGI (T-47D breast): 4.65 µM; TGI (SF-539 CNS): 0.681 µM; TGI (NCI-H23 lung): 2.12 µM; TGI (SK-MEL-2 melanoma): 7.99 µM; TGI (NCI-H522 lung): 0.633 µM; TGI (OVCAR-4 ovarian): 2.55 µM; TGI (SF-295 CNS): 5.16 µM; TGI (SK-OV-3 ovarian): 6.82 µM
